Test [1] deals with IL-17-induced GROα secretion from HT-29 cells. The test is described as follows: HT-29 cellular assay (IL-17-induced GROα secretion). It counts as cell-based. The note with it: Homo sapiens. On the procedure:
To test the ability of a compound of the invention to neutralize or antagonize IL-17 bioactivity, the following cell-based assay was used. IL-17 can stimulate epithelial cells and other cells to secrete GROα. The ability of a compound of the invention to neutralize IL-17-induced GROα secretion from the human colorectal adenocarcinoma epithelial cell line HT-29 is tested in this assay.
HT-29 cells (human colorectal adenocarcinoma epithelial cells, ATCC #HTB-38), were maintained in culture/assay medium in tissue culture-treated flasks using standard techniques. HT-29 cells were grown in tissue culture flasks until they were 50-80% confluent on the day before the assay. The day before the assay, the cells were detached from the culture flasks with trypsin+EDTA. The trypsin was inactivated with complete assay medium. HT-29 cells were then centrifuged at 500×g for 5 minutes at room temperature. The cell pellet was then re-suspended in Defined Keratinocyte SFM (Invitrogen #10766019)+10% FCS and 50,000 HT-29 cells (in 100 μl) were added to each treatment well of the 96-well plates. The 96-well plates were placed in a tissue culture incubator (37° C., 5% CO2) overnight. The next day, the media was removed from the cells and the cells were washed twice with Defined Keratinocyte SFM. In a separate 96-well plate, compounds to be tested were serially diluted in Defined Keratinocyte SFM and run in triplicate in 100 μL total volume. To these compound samples were then added 100 μL of human IL-17 at a concentration of 20 ng/mL in Defined Keratinocyte SFM for serum-free assays. 150 μL of the compound/IL-17 mixture was then added to the cells from which the media has previously been removed. The cells were grown for 48 hours in Defined Keratinocyte SFM in a tissue culture incubator (37° C., 5% CO2).
At the end of the incubation, the plates are centrifuged (500×g for 5 minutes at room temperature), and the cell culture media is transferred to polypropylene 96-well plates. The supernatant was used neat in the ELISA. GROα levels are measured with a GROα sandwich ELISA (R+D Systems DuoSet #DY275E), as per the manufacturer's instructions. The ELISA plates were previously coated with mAb 275 (R+D Systems) at 4 μg/mL. GROα is detected using biotinylated goat anti-human GROα (R+D Systems BAF275) at 200 ng/mL using TMB as a substrate. At the end of the ELISA reactions, plates are read at 450 nm on a microplate reader and compared to a standard calibration curve.

The target of test [2] is T1, IL17A (Homo sapiens, UniProt Q16552).
T1 sequence (Q16552 24-155): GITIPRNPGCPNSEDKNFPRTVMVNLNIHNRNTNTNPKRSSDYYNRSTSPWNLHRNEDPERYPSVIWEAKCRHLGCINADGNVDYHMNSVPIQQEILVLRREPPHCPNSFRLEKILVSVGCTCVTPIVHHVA
Kind of test: Surface Plasmon Resonance (SPR) analysis of compound interactions with IL17A. The note with it: SPR binding to IL17A. In short, it runs like this:
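His-tagged IL17A captured on a Ni-NTA chip; five 2- or 3-fold compound dilutions from 50 μM injected for 180 s, 120 s dissociation, in HEPES-saline buffer with 0.5% DMSO. Baseline-subtracted sensorgrams fitted 1:1 for ka, kd and KD; Kd also derived from binding extent per concentration.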
On the technique in general: In SPR one partner is held on a chip, and binding of the other changes the refractive index at the surface.

For test [3], the target named is T2, recombinant human IL17a (binding to its receptor IL17R) (Homo sapiens, UniProt Q16552).
T2 construct: purchased R&D Systems 317-ILB (IL17a); 177-IR (IL17R/Fc)
T2 sequence (Q16552 20-155 limits assumed): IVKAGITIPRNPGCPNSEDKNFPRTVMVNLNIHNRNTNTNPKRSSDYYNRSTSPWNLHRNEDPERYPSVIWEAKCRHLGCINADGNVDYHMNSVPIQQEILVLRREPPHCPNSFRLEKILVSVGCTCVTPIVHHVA
The test is described as follows: IL-17 competition ELISA I (IL17a coated, IL17R/Fc binding). In short, it runs like this:
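Plates coated with 20 nM recombinant human IL17a received compound dilutions and 12 nM IL17R/Fc (final) for 30 min at room temperature. Bound receptor was detected with HRP anti-human Fc and TMB, read at 450 nm. IC50 came from a 4-parameter logistic fit between no-competitor and blank controls.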

Consider `COC(=O)[C@@H]1CCCCNC(=O)CCCCNC(=O)[C@@H](Cc2ccc(NC(=O)[C@H](Cc3ccccc3F)NC(=O)Cc3ccccc3)cc2)NC(=O)CC2(CCCC2)CC(=O)N1` [Compound 110], for which the IC50 (usually the midpoint of a concentration-inhibition curve) in test [1] was more than 10 µM. In test [2], the Kd – broadly, a measure of binding affinity in units of concentration – was in the range of 100 to 1000 nM.
`COC(=O)[C@@H]1CCCCNC(=O)CCCNC(=O)[C@@H](Cc2ccc(NC(=O)[C@H](Cc3ccccc3Cl)NC(=O)Cc3ccccc3)cc2)NC(=O)CC2(CCCC2)CC(=O)N1` [Compound 112] came in with an IC50 in test [1] of 1 to 10 µM. Further, the Kd in test [2] is less than 100 nM.
In the case of `COC(=O)[C@@H]1CCCCNC(=O)CCCNC(=O)[C@@H](Cc2ccc(NC(=O)[C@H](Cc3ccccc3Cl)NC(=O)c3ccccc3)cc2)NC(=O)CC2(CCCC2)CC(=O)N1` [Compound 113], the IC50 in test [1] is more than 10 µM. In test [2], the Kd lay in the range of 100 to 1000 nM.
Molecule `COC(=O)[C@H]1CCCCNC(=O)CNC(=O)[C@@H](Cc2ccc(NC(=O)[C@H](Cc3ccccc3Cl)NC(=O)Cc3ccccc3)cc2)NC(=O)CC2(CCCC2)CC(=O)N1` [Compound 141] returned an IC50 in test [1] of 1 to 10 µM. This molecule also had an equilibrium dissociation constant (Kd) in test [2] of less than 100 nM.
Molecule `COC(=O)[C@H]1CCCCNC(=O)CNC(=O)[C@@H](Cc2ccc(NC(=O)[C@H](Cc3ccccc3Cl)NC(=O)c3ccccc3)cc2)NC(=O)CC2(CCCC2)CC(=O)N1` [Compound 142] had an IC50 in test [1] of 1 to 10 µM. In test [2], this molecule showed a Kd of less than 100 nM.
Take `O=C1CNC(=O)[C@@H](Cc2ccc(NC(=O)[C@H](Cc3ccccc3F)NC(=O)Cc3ccccc3)cc2)NC(=O)CC2(CCCC2)CC(=O)N[C@H](C(=O)O)CCCCN1` [Compound 177]: the IC50 in test [1] lay within 1 to 10 µM. The same molecule had a Kd in test [2] of less than 100 nM.
`O=C1CNC(=O)[C@@H](Cc2ccc(NC(=O)[C@H](Cc3ccccc3Cl)NC(=O)Cc3ccccc3)cc2)NC(=O)CC2(CCCC2)CC(=O)N[C@@H](C(=O)O)CCCCN1` [Compound 180]: the 50% inhibitory concentration (IC50) in test [1] was less than 1 µM; in test [3] it was less than 100 nM. Moreover, in test [2], the Kd is less than 100 nM.
`O=C1CNC(=O)[C@@H](Cc2ccc(NC(=O)[C@H](Cc3c(F)cccc3F)NC(=O)Cc3ccccc3)cc2)NC(=O)CC2(CCCC2)CC(=O)NCCCCCN1` [Compound 184] came in with an IC50 in test [1] of 1 to 10 µM. Also, the Kd in test [2] is less than 100 nM.
In the case of `O=C1CNC(=O)[C@@H](Cc2ccc(NC(=O)[C@H](Cc3ccccc3Br)NC(=O)Cc3ccccc3)cc2)NC(=O)CC2(CCCC2)CC(=O)NCCCCCN1` [Compound 187], the values for the IC50 in test [1] and in test [3] were 1 to 10 µM and less than 100 nM, respectively. Besides, the Kd in test [2] was less than 100 nM.
